pIC50: −log10 of the molar value.

One experiment deals with T1, chemokine receptor (RANTES / MIP-1α binding) on THP-1 cell membranes (Homo sapiens, UniProt P32246).
T1 sequence (P32246 1-355): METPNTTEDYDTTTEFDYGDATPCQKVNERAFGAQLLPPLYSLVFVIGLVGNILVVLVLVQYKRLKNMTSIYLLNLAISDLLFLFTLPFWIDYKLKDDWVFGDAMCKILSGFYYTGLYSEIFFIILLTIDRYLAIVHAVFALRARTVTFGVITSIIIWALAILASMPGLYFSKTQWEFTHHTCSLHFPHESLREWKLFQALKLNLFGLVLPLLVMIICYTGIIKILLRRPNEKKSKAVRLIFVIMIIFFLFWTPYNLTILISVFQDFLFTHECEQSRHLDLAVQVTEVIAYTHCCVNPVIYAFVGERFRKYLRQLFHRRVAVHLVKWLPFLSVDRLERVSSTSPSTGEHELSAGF
The experiment can be described thus: Receptor binding assay with 125I-RANTES or 125I-MIP-1α as ligand and THP-1 cell membranes.
Conditions: not given
On the procedure:
Membranes were prepared from THP-1 cells (ATCC #TIB202). Cells were harvested by centrifugation, washed twice with PBS (phosphate-buffered saline), and the cell pellets were frozen at −70 to −85° C. […] This procedure results in cell lysis. The suspension was mixed well to resuspend all of the frozen cell pellet. Nuclei and cell debris were removed by centrifugation of 400× g for 10 minutes at 4° C. The supernatant was transferred to a fresh tube and the membrane fragments were collected by centrifugation at 25,000× g for 30 minutes at 4° C. The supernatant was aspirated and the pellet was resuspended in freezing buffer consisting of 10 mM HEPES pH 7.5, 300 mM sucrose, 1 μg/ml each aprotinin, leupeptin, and chymostatin, and 10 μg/ml PMSF approximately 0.1 ml per each 10^8 cells). All clumps were resolved using a minihomogenizer, and the total protein concentration was determined using a protein assay kit (Bio-Rad, Hercules, Calif., cat #500-0002). The membrane solution was then aliquoted and frozen at −70 to −85° C. until needed. Binding Assays utilized the membranes described above.
The molecule `N#CC1(CCCN2CCC(O)(c3ccc(Cl)cc3)CC2)c2ccccc2CCc2ccccc21` [Example 2, 4-(4-Chlorophenyl)-1-[3-(5-cyano-10,11-dihydro-5H-dibenzo[a,d]cycloheptene-5-yl)propyl]piperidin-4-ol] had a pIC50 of 7.28.

As to `N#CC1(CCCN2CCC(O)(c3ccc(Cl)cc3)CC2)c2ccccc2C[S+]([O-])c2ccccc21` (single isomer, unassigned) [Example 15, 4-(4-Chlorophenyl)-1-[3-(11-cyano-6,11-dihydro-5-oxodibenzo[b,e]thiepin-11-yl)propyl]piperidin-4-ol], the pIC50 is 6.21.

Molecule `N#CC1(CCCN2CCC(O)(c3ccc(Cl)cc3)CC2)c2ccccc2CSc2ccccc21` (centres unmarked) [Example 10, 4-(4-Chlorophenyl)-1-[3-(11-cyano-6,11-dihydrodibenzo[b,e]thiepin-11-yl)propyl] piperidin-4-ol] had a pIC50 of 7.01.

On to `O=C(CCN1CCC(O)(c2ccc(Cl)cc2)CC1)C1c2ccccc2CCc2ccccc21` [Example 24, 4-(4-Chlorophenyl)-1-[3-(10,11-dihydro-5H-dibenzo[a,d]cycloheptene-5-yl)-3-propioyl]piperidin-4-ol], for which the pIC50 is 6.80.

Molecule `O=C(NCC1(CCCN2CCC(O)(c3ccc(Cl)cc3)CC2)c2ccccc2CSc2ccccc21)Oc1ccccc1` (centres unmarked) [Example 22] had a pIC50 of 6.16.

`N#CC1(CCCN2CCC(O)(c3ccc(Cl)cc3)CC2)c2ccccc2C[S+]([O-])c2ccccc21` (single isomer, unassigned) [Example 14, 4-(4-Chlorophenyl)-1-[3-(11-cyano-6,11-dihydro-5-oxodibenzo[b,e]thiepin-11-yl)propyl]piperidin-4-ol] gave a pIC50 of 6.55.

Still in this experiment, the particulars now being: 125I-RANTES or 125I-MIP-1α as ligand; THP-1 cell membranes; 60 min at room temperature; read-out: IC50 (inhibitor concentration required for 50% inhibition of specific binding).
For “1-[2-[3-[4-(4-chlorophenyl)-4-hydroxypiperidino]propyl]-2-(6,11-dihydrodibenzo[b,e]thiepi n-11-yl)ethyl]-3-(hydroxypropyl)urea [Example 23]”, the pIC50 is 5.66.

For the molecule `N#CC1(CCCN2CCC(O)(c3ccc(Br)cc3)CC2)c2ccccc2CSc2ccccc21` (centres unmarked) [Example 12, 4-(4-Bromophenyl)-1-[3-(11-cyano-6,11-dihydrodibenzo[b,e]thiepin-11-yl)propyl]piperidi n-4-ol], the pIC50 is 7.00.

As for `N#CC1(CCCN2CCC(O)(c3ccc(Cl)cc3)CC2)c2ccccc2CSc2ccc(Br)cc21` (centres unmarked) [Example 13, 1-[3-(2-Bromo-11-cyano-6,11-dihydrodibenzo[b,e]thiepin-11-yl)propyl]-4-(4-chlorophenyl)piperidin-4-ol], the pIC50 is 6.42.

Regarding `N#CC1(CCCN2CCC(O)(c3ccc(Cl)cc3)CC2)c2ccccc2C=Cc2ccccc21` [Example 1, 4-(4-Chlorophenyl)1-[3-(5-cyano-5H-dibenzo[a,d]cycloheptene-5-yl)propyl]piperidin-4-ol], the pIC50 was 7.06.

With `N#CC1(CCCN2CCC(O)(c3ccc(Cl)cc3)CC2)c2ccccc2COc2ccccc21` (centres unmarked) [Example 3, 4-(4-Chlorophenyl)-1-[3-(11-cyano-6,11-dihydrodibenz[b,e]oxepin-11-yl)propyl]piperidin-4-ol], the pIC50 was 6.96.

Regarding `N#CC1(CCCN2CCC(O)(c3ccc(Cl)cc3)CC2)c2ccccc2COc2ccc(Br)cc21` (centres unmarked) [Example 6, 1-[3-(2-Bromo-11-cyano-6,11-dihydrodibenz[b,e]oxepin-11-yl)propyl]-4-(4-chlorophenyl)piperidin-4-ol], the pIC50 was 6.52.

Consider `OC1(c2ccc(Cl)cc2)CCN(CCCC2c3ccccc3CSc3ccccc32)CC1` (centres unmarked) [Example 17, 4-(4-Chlorophenyl)-1-[3-(6,11-dihydrodibenzo[b,e]thiepin-11-yl)propyl]piperidin-4-ol], for which the pIC50 was 7.15.

As for `Cc1ccc2c(c1)C(C#N)(CCCN1CCC(O)(c3ccc(Cl)cc3)CC1)c1ccccc1CO2` (centres unmarked) [Example 7, 4-(4-Chlorophenyl)-1-[3-(11-cyano-6,11-dihydro-2-methyldibenz[b,e]oxepin-11-yl)propyl]piperidin-4-ol], the pIC50 was 6.42.

Consider `N#CC1(CCCN2CCC(O)(c3ccccc3)CC2)c2ccccc2CSc2ccccc21` (centres unmarked) [Example 11, 1-[3-(1l-Cyano-6,11-dihydrodibenzo[b,e]thiepin-11-yl)propyl]-4-phenylpiperidin-4-ol], for which the pIC50 was 4.96.

Consider `N#CC1(CCCN2CCC(O)(c3ccc(Cl)cc3)CC2)c2ccccc2COc2ccc(F)cc21` (centres unmarked) [Example 5, 4-(4-Chlorophenyl)-1-[3-(11-cyano-6,11-dihydro-2-fluorodibenz[b,e]oxepin-11-yl)propyl]piperidin-4-ol], for which the pIC50 is 6.72.

Consider `N#CC1(CCCN2CCC(O)(c3ccc(Cl)cc3)CC2)c2ccccc2CS(=O)(=O)c2ccccc21` (centres unmarked) [Example 16, 4-(4-Chlorophenyl)-1-[3-(11-cyano-6,11-dihydro-5,5-dioxodibenzo[b,e]thiepin-11-yl)propyl]piperidin-4-ol], for which the pIC50 was 7.10.

Turning to `OC1(c2ccc(Cl)cc2)CCN(CCCC2c3ccccc3CCc3ccccc32)CC1` [Example 18, 4-(4-Chlorophenyl)-1-[3-(10,11-dihydro-5H-dibenzo[a,d]cycloheptene-5-yl)propyl]piperidin-4-ol], the pIC50 is 7.26.

Turning to `N#CC1(CCCN2CCC(O)(c3ccc(F)cc3)CC2)c2ccccc2COc2ccccc21` (centres unmarked) [Example 4, 1-[3-(11-Cyano-6,11-dihydrodibenz[b,e]oxepin-11-yl)propyl]-4-(4-fluorophenyl)piperidin-4-ol], the pIC50 was 6.41.

Turning to `OC1(c2ccc(Cl)cc2)CCN(CCCC2c3ccccc3COc3ccccc32)CC1` (centres unmarked) [Example 19, 4-(4-Chlorophenyl)-1-[3-(6,11-dihydrodibenz[b,e]oxepin-11-yl)propyl]piperidin-4-ol], the pIC50 is 7.23.

The values above are taken from patent US20020151553A1, “Chemokine receptor antagonists and methods of use therefor” (Millennium Pharmaceuticals, Inc., priority 1996, published 2002).
